From patent US20240002397A1, “3-AMINO PYRROLIDINE AND PIPERIDINE MACROCYCLIC OREXIN RECEPTOR AGONISTS” (Merck Sharp & Dohme LLC, priority 2020, published 2024)

The molecules below were run against T1, human OX2R (Homo sapiens, UniProt O43614) (assay: IPOne (IP-1) orexin receptor agonist assay in CHO cells expressing human OX2R). Details: CHO, hOX2R IP-One; percentage of mean max effect of a reference compound at 1 uM with 100% activity.
T1 sequence (O43614 1-444): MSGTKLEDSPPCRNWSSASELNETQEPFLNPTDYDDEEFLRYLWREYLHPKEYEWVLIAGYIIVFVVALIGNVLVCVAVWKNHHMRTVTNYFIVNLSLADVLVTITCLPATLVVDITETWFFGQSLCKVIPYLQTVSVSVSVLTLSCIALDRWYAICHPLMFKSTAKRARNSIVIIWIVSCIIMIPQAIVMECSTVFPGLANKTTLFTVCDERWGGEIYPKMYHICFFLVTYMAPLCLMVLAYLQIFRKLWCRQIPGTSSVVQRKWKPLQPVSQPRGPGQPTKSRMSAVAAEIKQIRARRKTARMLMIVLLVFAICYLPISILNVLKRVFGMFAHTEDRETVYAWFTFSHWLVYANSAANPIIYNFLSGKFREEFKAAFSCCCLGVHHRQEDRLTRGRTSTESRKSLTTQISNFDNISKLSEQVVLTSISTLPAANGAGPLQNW
Protocol: In atypical experiment, the OX1 and OX2 receptor agonist activity is determined in accordance with the following general experimental method. Chinese hamster ovary (CHO) cells expressing human OX1R and/or the human OX2R were grown in Iscove's modified DMEM containing glutaMAX™, 1% G418, 100 U/mL penicillin, 100 μg/mL streptomycin and 10% heat-inactivated qualified fetal bovine serum (FBS). […] During this incubation, IP-one detection reagents were prepared (38:1:1 lysis buffer:D2:AB-cryptate reagents).
For each compound, data were fit to a four parameter logistic fit (ActivityBase software) and the EC50 was reported as the inflection point of the resulting curve.

Compared with `C[C@@H]1C[C@H](NS(=O)(=O)N(C)C)[C@@H]2COC3CCC(CC3)c3cccc(c3)CCCCOC(=O)N12` [Example 22, N′-((2^1S,2^4S,5^2R,5^3S,5^5R)-5^5-methyl-6-oxo-3,7-dioxa-5(2,1)-pyrrolidina-1(1,3)-benzena-2(1,4)-cyclohexanacycloundecaphane-5^3-yl)-N,N-dimethysulfamide], `CN(C)S(=O)(=O)N[C@H]1CCCN2C(=O)OCCCOc3cccc(c3)C3CCC(CC3)OC[C@@H]12` [Example 25, N′-((2^1S,2^4S,5^2R,5^3S)-6-oxo-3,7,11-trioxa-5(2,1)-piperidina-1(1,3)-benzena-2(1,4)-cyclohexanacycloundecaphane-5^3-yl)-N,N-dimethyl-sulfamide] is lower in Emax: 102% for the first, 101% for the second.

Going from `CN(C)S(=O)(=O)N[C@H]1CCN2C(=O)CCCCNc3cccc(c3)[C@H]3CC[C@H](CC3)OC[C@@H]12` [Example 23, N′-((2^1S,2^4S,5^2R,5^3S)-6-oxo-3-oxa-11-aza-5(2,1)-pyrrolidina-1(1,3)-benzena-2(1,4)-cyclohexanacycloundecaphane-5^3-yl)-N,N-dimethyl-sulfamide] to `CN(C)S(=O)(=O)N[C@H]1CCCN2C(=O)OCCCCOc3cccc(c3)C3CCC(CC3)OC[C@@H]12` [Example 26, N′-((2^1S,2^4S,5^2R,5^3S)-6-oxo-3,7,12-trioxa-5(2,1)-piperidina-1(1,3)-benzena-2(1,4)-cyclohexanacyclododecaphane-5^3-yl)-N,N-dimethy-sulfamide], the Emax falls from 102% to 94.1%.

Compared with `CS(=O)(=O)N[C@H]1CCCN2C(=O)CCCCOc3ccccc3[C@H]3CC[C@H](CC3)OC[C@@H]12` [Example 24, N-((2^1S,2^4S,5^2R,5^3S)-6-oxo-3,1′-dioxa-5(2,1)-piperidina-1(1,2)-benzena-2(1,4)-cyclohexanacycloundecaphane-5^3-yl)methanesulfonamide], `CS(=O)(=O)N[C@H]1CCCN2C(=O)CCCCOc3cccc(c3)C3CCC(CC3)OC[C@@H]12` [Example 29, N-((2^1S,2^4S,5^2R,5^3S)-6-oxo-3,11-dioxa-5(2,1)-piperidina-1(1,3)-benzena-2(1,4)-cyclohexanacycloundecaphane-5^3-yl)methanesulfonamide] is higher in Emax: 99.2% for the first, 101% for the second.

Going from `CN(C)S(=O)(=O)N[C@@H]1CCCN2C(=O)OCCCCOc3cccc(c3)C3CCC(CC3)OC[C@H]12` [Example 27, N′-((2^1R,2^4R,5^2S,5^3R)-6-oxo-3,7,12-trioxa-5(2,1)-piperidina-1(1,3)-benzena-2(1,4)-cyclohexanacyclododecaphane-5^3-yl)-N,N-dimethyl-sulfamide] to `CS(=O)(=O)N[C@H]1CCCN2C(=O)/C=C/CCOc3cccc(c3)C3CCC(CC3)OC[C@@H]12` [Example 28, N-((2^1S,2^4S,5^2R,5^3S,E)-6-oxo-3,11-dioxa-5(2,1)-piperidina-1(1,3)-benzena-2(1,4)-cyclohexanacycloundecaphan-7-en-5^3-yl)methanesulfonamide], the Emax rises from 4.1% to 102%.

`C[C@@H]1C[C@H](NS(C)(=O)=O)C2CO[C@H]3CC=C(CC3)c3cc(F)cc(c3)OCCCOC(=O)N21` (some centres unmarked) [Example 41] and `C[C@@H]1C[C@H](NS(C)(=O)=O)C2COC3CCC(CC3)c3cc(F)cc(c3)OCCCOC(=O)N21` (some centres unmarked) [Example 42, N-((2^1S,2^4S, 5^2R,5^3S,5^5R)-1^5-fluoro-5^5-methyl-6-oxo-3,7,11-trioxa-5(2,1)-pyrrolidina-1(1,3)-benzena-2(1,4)-cyclohexana-cyclounde-caphane-5^3-yl)methane-sulfonamide] are the same in Emax: 102% for the first, 102% for the second.

Same assay, conditions: hOX2R IP-One; percentage of mean max effect of a reference compound at 1 uM with 100% activity

In the case of `CS(=O)(=O)NC1CCCN2C(=O)CCCOc3cccc(c3)C3CCC(C3)OCC12` (centres unmarked) [Example 33, N-((2^1S,2^3R,5^2R,5^3S)-6-oxo-3,10-dioxa-5(2,1)-piperidina-1(1,3)-benzena-2(1,3)-cyclopentanacyclodecaphane-5^3-yl)methanesulfonamide], the “Emax (%)” value was −3.9%.
